In PubChem BioAssay AID202 (DTP/NCI, 2004):
Where “and” joins values, the source holds several entries; their conditions need not be identical. Identical values can stand only once.

System: HT29 xenograft, nude mice, s.c., tumor weight T/C%
Test: NCI In Vivo Anticancer Drug Screen. Data for tumor model HT29;CX-1 Human Adenocarcinoma (MER+) (subcutaneous) in NU/NU Swiss (nude) mice
Settings: endpoint: optimum tumor weight change, higher = larger tumour
Protocol: The antitumor activity of compounds was measured in mice bearing transplantable tumors. Survival or tumor size were measured and the results are expressed as the measurement made in the treated group (T) divided by the measurement made in the vehicle treated control group (C). The tumor model used in this assay is HT29;CX-1 Human Adenocarcinoma (MER+) (subcutaneous) in NU/NU Swiss (nude) mice

[1] = dose: 1.0 mg/kg/injection, schedule: Q04DX003 (ip), vehicle: saline
[2] = dose: 2.0 mg/kg/injection, schedule: Q04DX003 (ip), vehicle: saline
[3] = dose: 200.0 mg/kg/injection, schedule: Q04DX003 (ip), vehicle: saline with Tween-80
[4] = dose: 3.75 mg/kg/injection, schedule: Q04DX003 (ip), vehicle: saline
[5] = dose: 25.0 mg/kg/injection, schedule: Q04DX003 (ip), vehicle: Klucel (hydroxypropylcellulose) (HPC)
[6] = dose: 50.0 mg/kg/injection, schedule: Q04DX003 (ip), vehicle: Klucel (hydroxypropylcellulose) (HPC)
[7] = dose: 100.0 mg/kg/injection, schedule: Q04DX003 (ip), vehicle: Klucel (hydroxypropylcellulose) (HPC)
[8] = dose: 200.0 mg/kg/injection, schedule: Q04DX003 (ip), vehicle: Klucel (hydroxypropylcellulose) (HPC)
[9] = dose: 50.0 mg/kg/injection, schedule: Q04DX003 (ip), vehicle: saline
[10] = dose: 100.0 mg/kg/injection, schedule: Q04DX003 (ip), vehicle: saline
[11] = dose: 200.0 mg/kg/injection, schedule: Q04DX003 (ip), vehicle: saline
[12] = dose: 100.0 mg/kg/injection, schedule: Q04DX003 (ip), vehicle: suspension in saline
[13] = dose: 200.0 mg/kg/injection, schedule: Q04DX003 (ip), vehicle: suspension in saline
[14] = dose: 400.0 mg/kg/injection, schedule: Q04DX003 (ip), vehicle: suspension in saline
[15] = dose: 800.0 mg/kg/injection, schedule: Q04DX003 (ip), vehicle: suspension in saline

In the case of `CO[C@H]1C[C@](C)(O)Cc2cc3c(c(O)c21)C(=O)c1c(O)cc2c(c1C3=O)O[C@@H]1O[C@@]2(C)[C@H](O)[C@@H](N(C)C)[C@@H]1O`, the T/C (dose: 3.13 mg/kg/injection, schedule: Q04DX003 (ip), vehicle: other) is reported as 97 % of control, the T/C (dose: 6.25 mg/kg/injection, schedule: Q04DX003 (ip), vehicle: other) is reported as 124 % of control and the T/C (dose: 12.5 mg/kg/injection, schedule: Q04DX003 (ip), vehicle: other) is reported as 68 % of control. For the same molecule, the T/C (dose: 25.0 mg/kg/injection, schedule: Q04DX003 (ip), vehicle: other) was 61 % of control and 75 % of control.

For `O=C(O)C1(C(=O)O)CCC1.[NH2-].[NH2-].[Pt+2]`, the T/C (dose: 6.25 mg/kg/injection, schedule: Q04DX003 (ip), vehicle: dextrose) was 109 % of control and the T/C (dose: 25.0 mg/kg/injection, schedule: Q04DX003 (ip), vehicle: dextrose) was 69 % of control.

In the case of `O=C(O)CP(=O)(O)O`, the T/C (dose: 800.0 mg/kg/injection, schedule: Q04DX003 (ip), vehicle: saline) is reported as 94 % of control and the T/C (dose: 1600.0 mg/kg/injection, schedule: Q04DX003 (ip), vehicle: saline) is reported as 66 % of control.

`COc1cccc2c1C(=O)c1c(O)c3c(c(O)c1C2=O)C[C@@](O)(C(C)=O)C[C@@H]3OC1CC(N)C(O)C(C)O1` (some centres undefined) was tested, and the T/C [1] was 71 % of control and the T/C [2] was 113 % of control.

With `O=C1N(Cl)C(=O)C(c2ccc(Cl)cc2)(c2ccc(Cl)cc2)N1Cl` the T/C (dose: 100.0 mg/kg/injection, schedule: Q04DX003 (ip), vehicle: saline with Tween-80) was 103 % of control and the T/C [3] was 108 % of control.

In the case of `Cc1c(N)nc(C(CC(N)=O)NCC(N)C(N)=O)nc1C(=O)NC(C(=O)NC(C)C(O)C(C)C(=O)NC(C(=O)NCCc1nc(-c2nc(C(=O)NCCCNC(C)c3ccccc3)cs2)cs1)C(C)O)C(OC1OC(CO)C(O)C(O)C1OC1OC(CO)C(O)C(OC(N)=O)C1O)c1cnc[nH]1` (centres undefined), the T/C [4] is reported as 70 % of control.

For `CCc1ccccc1N1CCN(C(=O)c2cc(OC)c(OC)c(OC)c2)CC1`, the T/C [5] was 108 % of control, the T/C [6] was 63 % of control and the T/C [7] was 75 % of control. For the same molecule, the T/C [8] was 82 % of control.

For `C[n+]1c(-c2cccc3ccccc23)c2cc(N)ccc2c2ccccc21`, the T/C (dose: 1.5 mg/kg/injection, schedule: Q04DX003 (ip), vehicle: saline) was 86 % of control.

For `C[C@]12CC[C@@H]3c4ccc(OC(=O)Cc5ccc(N(CCCl)CCCl)cc5)cc4CC[C@H]3[C@@H]1CC[C@@H]2OC(=O)Cc1ccc(N(CCCl)CCCl)cc1`, the T/C (dose: 150.0 mg/kg/injection, schedule: Q04DX003 (ip), vehicle: saline with Tween-80) was 60 % of control and the T/C (dose: 1200.0 mg/kg/injection, schedule: Q04DX003 (ip), vehicle: saline with Tween-80) was 53 % of control and 66 % of control.

For `COc1cc([C@@H]2c3cc4c(c(O)c3C[C@H]3COC(=O)[C@@H]32)OCO4)cc(OC)c1O`, the T/C (dose: 3.13 mg/kg/injection, schedule: Q04DX003 (ip), vehicle: saline) was 63 % of control and the T/C (dose: 6.25 mg/kg/injection, schedule: Q04DX003 (ip), vehicle: saline) was 53 % of control.

With `O=[N+]([O-])/C=C\c1ccc2c(c1)OCO2` the T/C [6] was 116 % of control.

In the case of `CNC(=O)ON(C(C)=O)C(=O)NC`, the T/C (dose: 25.0 mg/kg/injection, schedule: Q04DX003 (ip), vehicle: saline) is reported as 52 % of control, the T/C [9] is reported as 59 % of control and the T/C [10] is reported as 98 % of control.

`Cc1c(CNc2ccc(C(=O)NC(CC(=O)O)C(=O)O)cc2)ccc2nc(N)nc(N)c12` (centres undefined) was tested, and the T/C (dose: 3.0 mg/kg/injection, schedule: Q04DX003 (ip), vehicle: saline with Tween-80) was 109 % of control, the T/C (dose: 6.0 mg/kg/injection, schedule: Q04DX003 (ip), vehicle: saline with Tween-80) was 153 % of control and the T/C (dose: 12.0 mg/kg/injection, schedule: Q04DX003 (ip), vehicle: saline with Tween-80) was 92 % of control.

For `Nc1cc2[nH]cnc2c(=O)[nH]1`, the T/C [9] was 89 % of control, the T/C [10] was 83 % of control and the T/C [11] was 93 % of control.

With `CN(C)c1nc(N(C)C)nc(N(C)C)n1` the T/C (dose: 60.0 mg/kg/injection, schedule: Q07DX005 (ip), vehicle: Klucel (hydroxypropylcellulose) (HPC)) was 91 % of control and 114 % of control, the T/C (dose: 120.0 mg/kg/injection, schedule: Q01DX005 (ip), vehicle: Klucel (hydroxypropylcellulose) (HPC)) was 38 % of control and 47 % of control and the T/C (dose: 120.0 mg/kg/injection, schedule: Q07DX005 (ip), vehicle: Klucel (hydroxypropylcellulose) (HPC)) was 72 % of control and 78 % of control. For the same molecule, the T/C (dose: 240.0 mg/kg/injection, schedule: Q04DX005 (ip), vehicle: Klucel (hydroxypropylcellulose) (HPC)) was 27 % of control and 38 % of control and the T/C (dose: 240.0 mg/kg/injection, schedule: Q07DX005 (ip), vehicle: Klucel (hydroxypropylcellulose) (HPC)) was 37 % of control.

`COc1cccc2c1C(=O)c1c(O)c3c(c(O)c1C2=O)C[C@@](O)(C(=O)CO)C[C@@H]3OC1CC(N)C(O)C(C)O1` (some centres undefined) was tested, and the T/C (dose: 2.0 mg/kg/injection, schedule: Q04DX003 (ip), vehicle: water) was 83 % of control.

`O=c1n[n+]([O-])ccn1C1OC(CO)C(O)C1O` (centres undefined) was tested, and the T/C [12] was 75 % of control, the T/C [13] was 71 % of control and the T/C [14] was 68 % of control. The T/C [15] was 82 % of control.

In the case of `O=C(NC1CCCCC1)OCc1c(COC(=O)NC2CCCCC2)c(-c2ccc(Cl)c(Cl)c2)n2c1CCC2`, the T/C [12] is reported as 96 % of control, the T/C [13] is reported as 90 % of control and the T/C [14] is reported as 92 % of control. For the same molecule, the T/C [15] was 65 % of control.

`CC[C@](O)(C(=O)O)c1cc2n(c(=O)c1CO)Cc1cc3ccccc3nc1-2` was tested, and the T/C (dose: 9.0 mg/kg/injection, schedule: Q04DX003 (ip), vehicle: saline) was 36 % of control.

For `Cc1c(N)nc(C(CC(N)=O)NCC(N)C(N)=O)nc1C(=O)NC(C(=O)NC(C)C(O)CC(=O)NC(C(=O)NC(OC1OC(C)C(N)C(O)C1O)C(O)c1nc(-c2nc(C(=O)NCCCC(N)CC(=O)NCCCNCCCCN)cs2)cs1)C(C)O)C(OC1OC(CO)C(O)C(O)C1OC1OC(CO)C(O)C(OC(N)=O)C1O)c1cnc[nH]1` (centres undefined), the T/C (dose: 0.5 mg/kg/injection, schedule: Q04DX003 (ip), vehicle: saline) was 92 % of control, the T/C [1] was 45 % of control and the T/C [2] was 39 % of control.

`O=P1(NCCCl)OCCCN1CCCl` (centres undefined) was tested, and the T/C (dose: 25.0 mg/kg/injection, schedule: Q04DX003 (ip), vehicle: suspension in saline) was 78 % of control and the T/C (dose: 50.0 mg/kg/injection, schedule: Q04DX003 (ip), vehicle: suspension in saline) was 108 % of control.

`CN(C)N=Nc1cn[nH]c1C(N)=O` was tested, and the T/C [5] was 69 % of control, the T/C [6] was 123 % of control and the T/C [7] was 79 % of control. The T/C [8] was 88 % of control.

For `Cc1c(N)nc([C@H](CC(N)=O)NC[C@H](N)C(N)=O)nc1C(=O)N[C@H](C(=O)N[C@H](C)[C@@H](O)[C@H](C)C(=O)N[C@H](C(=O)NCCc1nc(-c2nc(C(=O)NCCC[S+](C)C)cs2)cs1)[C@@H](C)O)C(OC1OC(CO)C(O)C(O)C1OC1OC(CO)C(O)C(OC(N)=O)C1O)c1cnc[nH]1` (some centres undefined), the T/C [4] was 71 % of control, the T/C (dose: 4.0 mg/kg/injection, schedule: Q04DX003 (ip), vehicle: saline) was 64 % of control and the T/C (dose: 7.5 mg/kg/injection, schedule: Q04DX003 (ip), vehicle: saline) was 50 % of control and 70 % of control. The T/C (dose: 7.5 mg/kg/injection, schedule: Q04DX004 (ip), vehicle: saline) was 37 % of control, the T/C (dose: 8.0 mg/kg/injection, schedule: Q04DX003 (ip), vehicle: saline) was 49 % of control and the T/C (dose: 15.0 mg/kg/injection, schedule: Q04DX004 (ip), vehicle: saline) was 26 % of control. For the same molecule, the T/C (dose: 16.0 mg/kg/injection, schedule: Q04DX003 (ip), vehicle: saline) was 28 % of control and 33 % of control and the T/C (dose: 32.0 mg/kg/injection, schedule: Q04DX003 (ip), vehicle: saline) was 11 % of control.

For `O=C/C(Cl)=C(/Cl)C(=O)O`, the T/C (dose: 12.5 mg/kg/injection, schedule: Q04DX003 (ip), vehicle: saline with Tween-80) was 86 % of control.

In the case of `CCN(CC)CCCC(C)Nc1c2ccc(Cl)cc2nc2ccc(OC)cc12` (centres undefined), the T/C (dose: 50.0 mg/kg/injection, schedule: Q04DX003 (ip), vehicle: saline with Tween-80) is reported as 89 % of control and the T/C [3] is reported as 91 % of control.

`c1cc2n(n1)CCN2` was tested, and the T/C [9] was 42 % of control, the T/C [10] was 50 % of control and the T/C [11] was 63 % of control. The T/C (dose: 400.0 mg/kg/injection, schedule: Q04DX003 (ip), vehicle: saline) was 41 % of control.

With `CC(C)CCCCCCCCCCCCC(=O)NCC(=O)NC1C(O)C(O)C(Nc2ncnc3nc[nH]c23)OC1C(O)CO` (centres undefined) the T/C (dose: 3.0 mg/kg/injection, schedule: Q04DX003 (ip), vehicle: suspension in saline) was 108 % of control and 110 % of control, the T/C (dose: 6.0 mg/kg/injection, schedule: Q04DX003 (ip), vehicle: suspension in saline) was 67 % of control and 79 % of control and the T/C (dose: 12.0 mg/kg/injection, schedule: Q04DX003 (ip), vehicle: suspension in saline) was 16 % of control and 40 % of control.
